Data taken from ChEMBL document CHEMBL1143213, “Anticancer activity of (1,2,3,5-tetrahydro-4,1-benzoxazepine-3-yl)-pyrimidines and -purines against the MCF-7 cell line: Preliminary cDNA microarray studies” (Bioorg Med Chem Lett, 2008).
Active and inactive are the calls of the source. No cut-off for these calls is given here.

Tests used:
Format in all cases: functional, cell-based
MCF7 [1] = assay: Antiproliferative activity against human MCF7 cells
MCF7 [2] = assay: Down regulation of RAC1 gene expression in human MCF7 cells by microarray
MCF7 [3] = assay: Induction of GP132 gene expression in human MCF7 cells by microarray
MCF7 [4] = assay: Induction of ERN1 gene expression in human MCF7 cells by microarray

SMILES | IC50 (MCF7 [1]; Homo sapiens, MCF7) | also measured
Ic1ncnc2c1ncn2C1COc2ccccc2CO1 (stereo unspecified) | 1.25 µM | –
O=[N+]([O-])c1ccc(S(=O)(=O)N2CC(n3cnc4ncnc(Cl)c43)OCc3ccccc32)cc1 (stereo unspecified) | 1.22 µM | –
COC(CN(c1ccccc1CO)S(=O)(=O)c1ccc([N+](=O)[O-])cc1)n1ccc(=O)[nH]c1=O (stereo unspecified) | 45.8 µM | –
Clc1ncnc2ncn(C3CSc4ccccc4CO3)c12 (stereo unspecified) | 1.25 µM | –
O=C(OCC1c2ccccc2-c2ccccc21)N1CC(n2cnc3ncnc(O)c32)OCc2ccccc21 (stereo unspecified) | 53.6 µM | –
Clc1ncnc2c1ncn2C1COc2ccccc2CO1 (stereo unspecified) | 1.25 µM | –
O=c1[nH]c(=O)n(C2CN(S(=O)(=O)c3ccccc3[N+](=O)[O-])c3ccccc3CO2)cc1F (stereo unspecified) | 19.7 µM | –
COc1ccc2c(c1)COC(n1cc(F)c(=O)[nH]c1=O)CO2 (stereo unspecified) | 1.25 µM | –
Nc1ccccc1S(=O)(=O)N1CC(n2cnc3ncnc(Cl)c32)OCc2ccccc21 (stereo unspecified) | 9.14 µM | –
COC(CN(c1ccccc1CO)S(=O)(=O)c1ccccc1[N+](=O)[O-])n1cnc2c(Cl)ncnc21 (stereo in doubt; 51) | – | IC50 (MCF7 [1]; mcf7): 11.3 µM
Clc1nc(Cl)c2ncn(C3COc4ccccc4CO3)c2n1 (stereo unspecified) | 1.25 µM | –
Clc1ncnc2c1ncn2C1CSc2ccccc2CO1 (stereo unspecified) | 1.25 µM | –
COC(CN(c1ccccc1CO)S(=O)(=O)c1ccccc1N)n1cc(F)c(=O)[nH]c1=O (stereo unspecified) | > 100 µM | –
O=c1ccn(C2CN(S(=O)(=O)c3ccccc3[N+](=O)[O-])c3ccccc3CO2)c(=O)[nH]1 (stereo unspecified) | 45.2 µM | –
O=c1[nH]cc(F)c(=O)n1C1CN(S(=O)(=O)c2ccccc2[N+](=O)[O-])c2ccccc2CO1 (stereo unspecified) | 22.6 µM | –
O=[N+]([O-])c1ccc(S(=O)(=O)N2CC(n3cnc4c(Cl)ncnc43)OCc3ccccc32)cc1 (stereo unspecified) | 2.73 µM | –
Clc1ncnc2ncn(C3COc4ccccc4CO3)c12 (stereo unspecified) | 1.25 µM | –
O=C(OCC1c2ccccc2-c2ccccc21)N1CC(n2cnc3ncnc(Cl)c32)OCc2ccccc21 (stereo unspecified) | 0.84 µM | –
Nc1ccccc1S(=O)(=O)N1CC(n2c(=O)[nH]cc(F)c2=O)OCc2ccccc21 (stereo unspecified) | 43.7 µM | –
O=S1(=O)CC(n2cnc3c(Cl)ncnc32)OCc2ccccc21 (stereo unspecified) | 1.25 µM | –
O=c1cc[nH]c(=O)n1C1CN(S(=O)(=O)c2ccc([N+](=O)[O-])cc2)c2ccccc2CO1 (stereo unspecified) | 44.3 µM | –
O=c1[nH]cc(F)c(=O)n1C1CN(S(=O)(=O)c2ccc([N+](=O)[O-])cc2)c2ccccc2CO1 (stereo unspecified) | 19.8 µM | –
O=c1[nH]cc(F)c(=O)n1C1CNc2ccccc2CO1 (stereo unspecified) | 72.4 µM | –
COC(CN(c1ccccc1CO)S(=O)(=O)c1ccccc1[N+](=O)[O-])n1cc(F)c(=O)[nH]c1=O (stereo unspecified) | 91 µM | –

SMILES | IC50 (MCF7 [1]; Homo sapiens, MCF7) | also measured
O=[N+]([O-])c1ccc(S(=O)(=O)N2CC(n3cnc4ncnc(Sc5ccccc5)c43)OCc3ccccc32)cc1 (stereo unspecified) | 0.86 µM | Activity (MCF7 [2]): Active
O=[N+]([O-])c1ccccc1S(=O)(=O)N1CC(n2cnc3ncnc(Sc4ccccc4)c32)OCc2ccccc21 (stereo unspecified) | 2.59 µM | –
Clc1nc(Cl)c2c(ncn2C2COc3ccccc3CO2)n1 (stereo unspecified) | 1.25 µM | –
O=c1[nH]c(=O)n(C2CNc3ccccc3CO2)cc1F (stereo unspecified) | > 100 µM | –
c1ccc(Sc2ncnc3ncn(C4CNc5ccccc5CO4)c23)cc1 (stereo unspecified) | 48.9 µM | –
COC(CNc1ccccc1CO)n1cc(F)c(=O)[nH]c1=O (stereo unspecified) | 36 µM | –
O=[N+]([O-])c1ccccc1S(=O)(=O)N1CC(n2cnc3c(Cl)ncnc32)OCc2ccccc21 (stereo unspecified) | 2.1 µM | –
O=c1ccn(C2CN(S(=O)(=O)c3ccc([N+](=O)[O-])cc3)c3ccccc3CO2)c(=O)[nH]1 (stereo unspecified) | 39.8 µM | –
COC(CN(C(=O)c1ccccc1)c1ccccc1CO)n1cc(F)c(=O)[nH]c1=O (stereo unspecified) | 16.1 µM | –
O=[N+]([O-])c1ccccc1S(=O)(=O)N1CC(n2cnc3ncnc(O)c32)OCc2ccccc21 (stereo unspecified) | 19.7 µM | –
COC(CN(c1ccccc1CO)S(=O)(=O)c1ccccc1[N+](=O)[O-])n1ccc(=O)[nH]c1=O (stereo unspecified) | 64.8 µM | –
Ic1ncnc2ncn(C3COc4ccccc4CO3)c12 (stereo unspecified) | 1.25 µM | –
COC(CN(c1ccccc1CO)S(=O)(=O)c1ccc([N+](=O)[O-])cc1)n1c(=O)cc[nH]c1=O (stereo unspecified) | 55.2 µM | –
Nc1ccc(S(=O)(=O)N2CC(n3cc(F)c(=O)[nH]c3=O)OCc3ccccc32)cc1 (stereo unspecified) | 14.4 µM | –
COC(CN(c1ccccc1CO)S(=O)(=O)c1ccc([N+](=O)[O-])cc1)n1cc(F)c(=O)[nH]c1=O (stereo unspecified) | 55.2 µM | –
O=c1cc[nH]c(=O)n1C1CN(S(=O)(=O)c2ccccc2[N+](=O)[O-])c2ccccc2CO1 (stereo unspecified) | 50.9 µM | –
O=c1ccn(C2COc3ccccc3CO2)c(=O)[nH]1 (stereo unspecified) | 1.25 µM | –
FC(F)(F)c1ncnc2c1ncn2C1COc2ccccc2CO1 (stereo unspecified) | 1.25 µM | –
O=c1[nH]c(=O)n(C2CN(S(=O)(=O)c3ccc([N+](=O)[O-])cc3)c3ccccc3CO2)cc1F (stereo unspecified) | 19.3 µM | –
Nc1ccccc1S(=O)(=O)N1CC(n2cc(F)c(=O)[nH]c2=O)OCc2ccccc21 (stereo unspecified) | 54.8 µM | –
O=C(OCC1c2ccccc2-c2ccccc21)N1CC(n2cnc3c(Cl)ncnc32)OCc2ccccc21 (racemic) | 0.67 µM | Activity (MCF7 [3]): Active; Activity (MCF7 [4]): Active
O=[N+]([O-])c1ccc(S(=O)(=O)N2CC(n3cnc4ncnc(O)c43)OCc3ccccc32)cc1 (stereo unspecified) | > 100 µM | –
COC(CN(c1ccccc1CO)S(=O)(=O)c1ccc([N+](=O)[O-])cc1)n1cnc2c(Cl)ncnc21 (stereo unspecified) | 18.7 µM | –
O=[N+]([O-])c1ccccc1S(=O)(=O)N1CC(n2cnc3ncnc(Cl)c32)OCc2ccccc21 (stereo unspecified) | 0.92 µM | –
